Key:
Assay type in all cases: biochemical
CDK2/CycA = molecular target: T1, CDK2/CycA (Homo sapiens, UniProt P24941); assay: CDK2 Enzymatic Activity Assay (Lance Kinase Activity Assay, FRET); details: Table 5B, class symbols per IC50 [nM] ranges of b581; read-out: CDK2: Selectivity of CDK7 inhibition over CDK2 inhibition
T1 construct: purchased Proqinase
Outline: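 Compounds in an 8-step, 1:3 dilution series were incubated 1 h at room temperature with CDK2/CycA, ULight-MBP substrate and ATP in pH 7.5 HEPES buffer.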

CDK7/CycH/Mat1 = CDK7/CycH/Mat1 (Homo sapiens, UniProt P50613); assay: CDK7 Enzymatic Activity Assay (Lance Kinase Activity Assay, FRET); details: CDK7/CycH/Mat1, 25 μM ATP final; class ranges; read-out: CDK7: IC50 [nM] for CDK7 inhibition
Chain of CDK7/CycH/Mat1 (P50613 whole entry): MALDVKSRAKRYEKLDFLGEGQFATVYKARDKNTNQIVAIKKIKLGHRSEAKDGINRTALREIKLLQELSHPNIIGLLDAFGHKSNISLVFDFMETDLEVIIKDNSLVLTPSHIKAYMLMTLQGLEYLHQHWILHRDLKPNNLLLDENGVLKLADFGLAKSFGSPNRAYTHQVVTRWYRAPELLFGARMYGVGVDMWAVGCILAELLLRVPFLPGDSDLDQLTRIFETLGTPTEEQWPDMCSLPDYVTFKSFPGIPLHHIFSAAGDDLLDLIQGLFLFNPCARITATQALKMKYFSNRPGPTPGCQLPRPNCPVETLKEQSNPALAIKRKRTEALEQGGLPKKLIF
Outline: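 TR-FRET (LANCE) kinase assay: CDK7/CycH/Mat1 phosphorylates Ulight-MBP substrate for 1 h at room temperature in pH 7.5 HEPES buffer; detection 1 h with Eu-labelled anti-phospho antibody plus EDTA.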

CDK9/Cyclin T1 = CDK9/Cyclin T1 (Homo sapiens, UniProt P50750); assay: CDK9 Enzymatic Activity Assay (Lance Kinase Activity Assay, FRET); details: Table 5B, class symbols per IC50 [nM] ranges of b581; read-out: CDK9: Selectivity of CDK7 inhibition over CDK9 inhibition
Chain of CDK9/Cyclin T1 (P50750 whole entry): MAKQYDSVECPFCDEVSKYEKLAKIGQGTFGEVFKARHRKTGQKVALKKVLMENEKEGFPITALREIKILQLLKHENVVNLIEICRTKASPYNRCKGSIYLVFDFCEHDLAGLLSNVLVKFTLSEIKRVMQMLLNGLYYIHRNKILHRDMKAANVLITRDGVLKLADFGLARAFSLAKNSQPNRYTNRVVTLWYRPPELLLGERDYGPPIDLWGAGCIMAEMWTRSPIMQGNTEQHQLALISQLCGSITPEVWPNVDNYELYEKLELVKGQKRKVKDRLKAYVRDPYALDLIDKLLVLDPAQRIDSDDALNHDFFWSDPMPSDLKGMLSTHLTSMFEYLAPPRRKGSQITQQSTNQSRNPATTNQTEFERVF
Chain of CDK9/Cyclin T1 (O60563 whole entry partner): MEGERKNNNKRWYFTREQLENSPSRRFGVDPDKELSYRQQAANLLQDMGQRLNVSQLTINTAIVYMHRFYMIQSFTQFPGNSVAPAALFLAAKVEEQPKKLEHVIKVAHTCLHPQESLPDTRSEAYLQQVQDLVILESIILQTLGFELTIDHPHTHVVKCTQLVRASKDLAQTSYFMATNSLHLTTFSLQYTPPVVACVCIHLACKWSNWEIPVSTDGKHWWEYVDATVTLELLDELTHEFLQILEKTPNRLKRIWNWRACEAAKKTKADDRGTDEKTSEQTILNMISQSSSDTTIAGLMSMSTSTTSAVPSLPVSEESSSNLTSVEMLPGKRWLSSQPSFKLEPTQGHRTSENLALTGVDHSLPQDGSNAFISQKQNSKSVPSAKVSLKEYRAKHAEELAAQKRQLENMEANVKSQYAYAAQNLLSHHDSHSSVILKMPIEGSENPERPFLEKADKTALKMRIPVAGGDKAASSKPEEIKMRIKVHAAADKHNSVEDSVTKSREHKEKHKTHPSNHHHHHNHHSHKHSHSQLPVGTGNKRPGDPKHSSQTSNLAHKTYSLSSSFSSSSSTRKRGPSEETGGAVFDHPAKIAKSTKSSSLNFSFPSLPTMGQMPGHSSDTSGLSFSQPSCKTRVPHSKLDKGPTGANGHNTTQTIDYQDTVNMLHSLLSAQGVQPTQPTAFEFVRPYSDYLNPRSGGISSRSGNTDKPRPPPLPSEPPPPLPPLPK
Outline: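 CDK9/cyclin T1 phosphorylation of a ULight-MBP peptide was run for 1 h at room temperature in pH 7.5 HEPES buffer with MgCl2, EGTA, DTT and Tween-20. It was followed by 1 h with Eu-anti-phospho-MBP antibody (4 nM) in EDTA detection buffer. TR-FRET loss gave IC50 from 8-point, 1:3 sigmoidal dose-response curves.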

| IC50 (CDK2/CycA) [nM] | IC50 (CDK7/CycH/Mat1) [nM] | IC50 (CDK9/Cyclin T1) [nM] | SMILES |
| --- | --- | --- | --- |
| > 2500 | 10 to 25 | > 2500 | CC(C)c1cnn2c(NCc3ccccc3-n3cccn3)nc(NCCOCCN)nc12 [(VIII-048), N4-(2-(1H-pyrazol-1-yl)benzyl)-N2-(2-(2-aminoethoxy)ethyl)-8-isopropylpyrazolo[1,5-a][1,3,5]triazine-2,4-diamine] |
| > 2500 | > 25 | > 2500 | CC(C)c1cnn2c(NCc3ccccc3-n3cccn3)nc(C(=O)N3CC4(CNC4)C3)nc12 [(XII-07), (4-((2-(1H-pyrazol-1-yl)benzyl)amino)-8-isopropylpyrazolo[1,5-a][1,3,5]triazin-2-yl)(2,6-diazaspiro[3.3]heptan-2-yl)methanone] |
| > 2500 | > 25 | > 2500 | CC(C)c1cnn2c(NCc3ccccc3-n3cccn3)nc(N(C)CCCN3CCCCC3)nc12 [(VIII-049), N4-(2-(1H-pyrazol-1-yl)benzyl)-8-isopropyl-N2-methyl-N2-(3-(piperidin-1-yl)propyl)pyrazolo[1,5-a][1,3,5]triazine-2,4-diamine] |
| > 2500 | > 25 | > 2500 | CC(C)c1cnn2c(NCc3ccccc3-n3cccn3)nc(NCCN3CCOCC3)nc12 [(VIII-046), N4-(2-(1H-pyrazol-1-yl)benzyl)-8-isopropyl-N2-(2-morpholinoethyl)pyrazolo[1,5-a][1,3,5]triazine-2,4-diamine] |
| 50 to 500 | < 5 | 500 to 2500 | CC(C)c1cnn2c(NCc3ccccc3-n3cccn3)nc(N3CCC(N(C)C)CC3)nc12 [(VIII-24), N-(2-(1H-pyrazol-1-yl)benzyl)-2-(4-(dimethylamino)piperidin-1-yl)-8-isopropylpyrazolo[1,5-a][1,3,5]triazin-4-amine] |
| 500 to 2500 | < 5 | < 50 | CC(C)c1cnn2c(NCc3cccc4c3ccc[n+]4[O-])nc(O[C@@H]3CCCNC3)nc12 [(VII-30), (R)-5-(((8-isopropyl-2-(piperidin-3-yloxy)pyrazolo[1,5-a][1,3,5]triazin-4-yl)amino)methyl)quinoline 1-oxide] |
| 50 to 500 | < 5 | > 2500 | CC(C)c1cnn2c(NCc3ccccc3N3CCCC3=O)nc(O[C@@H]3CCCNC3)nc12 [(VII-39), (R)-1-(2-(((8-isopropyl-2-(piperidin-3-yloxy)pyrazolo[1,5-a][1,3,5]triazin-4-yl)amino)methyl)phenyl)pyrrolidin-2-one] |
| > 2500 | < 5 | > 2500 | CC(C)c1cnn2c(NCc3ccccc3-n3cccn3)nc(C(=O)NCC3CCCNC3)nc12 (stereo not drawn) [(XII-4), 4-((2-(1H-pyrazol-1-yl)benzyl)amino)-8-isopropyl-N-(piperidin-3-ylmethyl)pyrazolo[1,5-a][1,3,5]triazine-2-carboxamide] |
| > 2500 | 10 to 25 | > 2500 | CC(C)c1cnn2c(NCc3ccccc3-n3cccn3)nc(N3CC4CCNC4C3)nc12 (stereo not drawn) [(VIII-050), N-(2-(1H-pyrazol-1-yl)benzyl)-2-(hexahydropyrrolo[3,4-b]pyrrol-5(1H)-yl)-8-isopropylpyrazolo[1,5-a][1,3,5]triazin-4-amine] |
| 50 to 500 | 10 to 25 | 50 to 500 | CC(C)c1cnn2c(NCc3cccc(Cl)c3Cl)nc(O[C@@H]3CCCNC3)nc12 [(VII-103), (R)-N-(2,3-dichlorobenzyl)-8-isopropyl-2-(piperidin-3-yloxy)pyrazolo[1,5-a][1,3,5]triazin-4-amine] |
| < 50 | < 5 | 50 to 500 | CC(C)c1cnn2c(NCc3ccccc3-n3cccn3)nc(O[C@@H]3CCCNC3)nc12 [(VII-03), (R)-N-(2-(1H-pyrazol-1-yl)benzyl)-8-isopropyl-2-(piperidin-3-yloxy)pyrazolo[1,5-a][1,3,5]triazin-4-amine] |
| 500 to 2500 | < 5 | > 2500 | CC(C)c1cnn2c(NCc3ccccc3-n3cccn3)nc(N3CCC4(CCCN4)C3)nc12 (stereo not drawn) [(VIII-17), N-(2-(1H-pyrazol-1-yl)benzyl)-8-isopropyl-2-(1,7-diazaspiro[4.4]nonan-7-yl)pyrazolo[1,5-a][1,3,5]triazin-4-amine] |
| 500 to 2500 | > 25 | > 2500 | CC(C)c1cnn2c(NCc3ccccc3SC3CCCC3)nc(O[C@@H]3CCCNC3)nc12 [(VII-119), (R)-N-(2-(cyclopentylthio)benzyl)-8-isopropyl-2-(piperidin-3-yloxy)pyrazolo[1,5-a][1,3,5]triazin-4-amine] |
| 50 to 500 | < 5 | > 2500 | CC(C)c1cnn2c(NCc3c(F)cccc3-n3cccn3)nc(O[C@@H]3CCCNC3)nc12 [(VII-44), (R)-N-(2-fluoro-6-(1H-pyrazol-1-yl)benzyl)-8-isopropyl-2-(piperidin-3-yloxy)pyrazolo[1,5-a][1,3,5]triazin-4-amine] |
| > 2500 | < 5 | > 2500 | CC(C)c1cnn2c(NCc3ccccc3-n3cccn3)nc(C(=O)NCC3CNC3)nc12 [(XII-2), 4-((2-(1H-pyrazol-1-yl)benzyl)amino)-N-(azetidin-3-ylmethyl)-8-isopropylpyrazolo[1,5-a][1,3,5]triazine-2-carboxamide] |
| 500 to 2500 | 10 to 25 | 500 to 2500 | CC(C)c1cnn2c(NCc3ccccc3C3CC3)nc(O[C@@H]3CCCNC3)nc12 (stereo in doubt) [(VII-143), N-(2-cyclopropylbenzyl)-8-isopropyl-2-(piperidin-3-yloxy)pyrazolo[1,5-a][1,3,5]triazin-4-amine] |
| 50 to 500 | < 5 | 500 to 2500 | CC(C)c1cnn2c(NCc3ccccc3-n3cncn3)nc([S+]([O-])C3CCNCC3)nc12 (stereo not drawn) [(X-4), N-(2-(1H-1,2,4-triazol-1-yl)benzyl)-8-isopropyl-2-(piperidin-4-ylsulfinyl)pyrazolo[1,5-a][1,3,5]triazin-4-amine] |
| 500 to 2500 | < 5 | > 2500 | Cc1nccn1-c1ccccc1CNc1nc([S+]([O-])C2CCNCC2)nc2c(C(C)C)cnn12 (stereo not drawn) [(X-5), 8-isopropyl-N-(2-(2-methyl-1H-imidazol-1-yl)benzyl)-2-(piperidin-4-ylsulfinyl)pyrazolo[1,5-a][1,3,5]triazin-4-amine] |
| > 2500 | > 25 | > 2500 | CC(C)c1cnn2c(NCc3ccccc3-n3cccn3)nc(C(=O)NCCCN)nc12 [(XII-10), 4-((2-(1H-pyrazol-1-yl)benzyl)amino)-N-(3-aminopropyl)-8-isopropylpyrazolo[1,5-a][1,3,5]triazine-2-carboxamide] |
| < 50 | < 5 | 50 to 500 | CC(C)c1cnn2c(NCc3cc(F)ccc3-n3cccn3)nc(O[C@@H]3CCCNC3)nc12 [(VII-41), (R)-N-(5-fluoro-2-(1H-pyrazol-1-yl)benzyl)-8-isopropyl-2-(piperidin-3-yloxy)pyrazolo[1,5-a][1,3,5]triazin-4-amine] |

| SMILES | IC50 (CDK2/CycA) [nM] | IC50 (CDK7/CycH/Mat1) [nM] | IC50 (CDK9/Cyclin T1) [nM] |
| --- | --- | --- | --- |
| CC(C)c1cnn2c(NCc3ccccc3OC3CCC3)nc(O[C@@H]3CCCNC3)nc12 [(VII-097), (R)-N-(2-cyclobutoxybenzyl)-8-isopropyl-2-(piperidin-3-yloxy)pyrazolo[1,5-a][1,3,5]triazin-4-amine] | > 2500 | > 25 | > 2500 |
